The results in this text go back to patent publication US20080234288A1, “Hcv Inhibiting Sulfonamides” (priority 2003, published 2008).

Each structure is given as a SMILES string. pEC50: −log10 of the molar value.

By pEC50 is commonly meant the EC50 on a negative log10 scale, so that one unit is a factor of ten. Low values mean a high EC50, high ones a low EC50.

One experiment concerns HCV replicon (NS3-NS5B regions of HCV type 1b) in Huh-7 luc/neo cells. The experiment can be described thus: HCV replicon assay, stable replicon cell reporter assay (Huh-Luc, luciferase). The class given is cell-based. Conditions: Hepatitis C virus, Huh-7, 72 h, incubation of three days, luciferase activity. The text has this:
The compounds of the present invention were examined for activity in the inhibition of HCV RNA replication in a cellular assay. […] The cellular assay was based on a bicistronic expression construct, as described by Lohmann et al. (1999) Science vol. 285 pp. 110-113 with modifications described by Krieger et al. (2001) Journal of Virology 75: 4614-4624, in a multi-target screening strategy. In essence, the method is as follows.
The assay utilized the stably transfected cell line Huh-7 luc/neo (hereafter referred to as Huh-Luc; kindly provided by Dr Ralf Bartenschlager, Reblikon GmBh, Germany). This cell line harbors an RNA encoding a bicistronic expression construct comprising the wild type NS3-NS5B regions of HCV type 1b translated from an Internal Ribosome Entry Site (IRES) from encephalomyocarditis virus (EMCV), preceded by a reporter portion (FfL-luciferase), and a selectable marker portion (neo^R, neomycine phosphotransferase). The construct was bordered by 5′ and 3′ NTRs (non-translated regions) from HCV type 1b. Continued culture of the replicon cells in the presence of G418 (neo^R) is dependent on the replication of the HCV RNA. The stably transfected replicon cells that express HCV RNA, which replicates autonomously and to high levels, encoding inter alia luciferase, were used for screening the antiviral compounds.
The replicon cells were plated in 384 well plates in the presence of the test and control compounds which were added in various concentrations. Following an incubation of three days, HCV replication was measured by assaying luciferase activity (using standard luciferase assay substrates and reagents and a Perkin Elmer ViewLux™ ultraHTS microplate imager). Replicon cells in the control cultures have high luciferase expression in the absence of any inhibitor. The inhibitory activity of the compound on luciferase activity was monitored on the Huh-Luc cells, enabling a dose-response curve for each test compound. EC50 values were then calculated, which value represents the amount of the compound required to decrease by 50% the level of detected luciferase activity, or more specifically, the ability of the genetically linked HCV replicon RNA to replicate (Table 1).
On the technique in general: In antiviral work, replicon cells carry a viral genome segment that copies itself.
Consider `CC(C)CN(CC(O)C(Cc1ccccc1)NC(=O)OCc1cncs1)S(=O)(=O)c1ccc(-c2csc(Nc3ccncc3)n2)cc1` (stereo not shown) [Compound 43, [1-Benzyl-2-hydroxy-3-(isobutyl-{4-[2-(pyridin-4-ylamino)-thiazol-4-yl]-benzenesulfonyl}-amino)-propyl]-carbamic acid thiazol-5-ylmethyl ester], for which the pEC50 was > 5.70.

For the compound `CC(C)CN(CC(O)C(Cc1ccccc1)NC(=O)OCc1cncs1)S(=O)(=O)c1ccc2nc(NC(=O)CN(C)CCN3CCCC3)oc2c1` (stereo not shown) [Compound 32, {1-Benzyl-2-hydroxy-3-[isobutyl-(2-{2-[methyl-(2-pyrrolidin-1-yl-ethyl)-amino]-acetylamino}-benzooxazole-6-sulfonyl)-amino]-propyl}-carbamic acid thiazol-5-ylmethyl ester], the pEC50 was 4.49 to 5.00.

`CC(C)CN(CC(O)C(Cc1ccccc1)NC(=O)OCc1cncs1)S(=O)(=O)c1ccc2nc(N(C)C)oc2c1` (stereo not shown) [Compound 33, {1-Benzyl-3-[(2-dimethylamino-benzooxazole-6-sulfonyl)-isobutyl-amino]-2-hydroxy-propyl}-carbamic acid thiazol-5-ylmethyl ester]: the pEC50 is 4.49 to 5.00.

`CC(C)CN(CC(O)C(Cc1ccccc1)NC(=O)OCc1cncs1)S(=O)(=O)c1ccc2ncn(CCc3ccccc3)c2c1` (stereo not shown) [Compound 41, {1-Benzyl-2-hydroxy-3-[isobutyl-(3-phenethyl-3H-benzo-imidazole-5-sulfonyl)-amino]-propyl}-carbamic acid thiazol-5-ylmethyl ester] showed a pEC50 of 4.49 to 5.00.

`CC(C)CN(CC(O)C(Cc1ccccc1)NC(=O)OCc1cncs1)S(=O)(=O)c1ccc2ncn(Cc3ccccc3)c2c1` (stereo not shown) [Compound 12, [1-Benzyl-3-[(3-benzyl-3H-benzoimidazole-5-sulfonyl)-isobutyl-amino]-2-hydroxy-propyl}-carbamic acid thiazol-5-ylmethyl ester]: the pEC50 is 5.00 to 5.70.

`CC(C)CN(CC(O)C(Cc1ccccc1)NC(=O)OCc1cncs1)S(=O)(=O)c1ccc2nc(N(C)C(=O)c3ccncc3)oc2c1` (stereo not shown) [Compound 9, [1-Benzyl-2-hydroxy-3-(isobutyl-{2-[methyl-(pyridine-4-carbonyl)-amino]-benzooxazole-6-sulfonyl}-amino)-propyl]-carbamic acid thiazol-5-ylmethyl ester] showed a pEC50 of 4.49 to 5.00.

As to `CC(C)CN(CC(O)C(Cc1ccccc1)NC(=O)OCc1cncs1)S(=O)(=O)c1ccc2nc(NCCN(C)C)sc2c1` (stereo not shown) [Compound 14, (1-Benzyl-3-{[2-(2-dimethylamino-ethylamino)-benzo-thiazole-6-sulfonyl]-isobutyl-amino}-2-hydroxy-propyl)-carbamic acid thiazol-5-ylmethyl ester], the pEC50 is 5.00 to 5.70.

Consider `CC(C)CN(CC(O)C(Cc1ccccc1)NC(=O)OCc1cncs1)S(=O)(=O)c1ccc2nc(NC(=O)c3ccncc3)oc2c1` (stereo not shown) [Compound 35, [1-Benzyl-2-hydroxy-3-(isobutyl-{2-[(pyridine-4-carbonyl)-amino]-benzooxazole-6-sulfonyl}-amino)-propyl]-carbamic acid thiazol-5-ylmethyl ester], for which the pEC50 is > 5.70.

Compound `CC(C)CN(CC(O)C(Cc1ccccc1)NC(=O)OCc1cnco1)S(=O)(=O)c1ccc2nc(N)oc2c1` (stereo not shown) [Compound 34, {3-[(2-Amino-benzooxazole-6-sulfonyl)-isobutyl-amino]-1-benzyl-2-hydroxy-propyl}-carbamic acid oxazol-5-ylmethyl ester] showed a pEC50 of 4.49 to 5.00.

Compound `CC(C)CN(CC(O)C(Cc1ccccc1)NC(=O)OCc1cncs1)S(=O)(=O)c1ccc2nc(NCCCN(C)C)sc2c1` (stereo not shown) [Compound 17, (1-Benzyl-3-{[2-(3-dimethylamino-propylamino)-benzo-thiazole-6-sulfonyl]-isobutyl-amino}-2-hydroxy-propyl)-carbamic acid thiazol-5-ylmethyl ester] showed a pEC50 of 4.49 to 5.00.

Turning to `CC(C)CN(CC(O)C(Cc1ccccc1)NC(=O)OCc1cncs1)S(=O)(=O)c1ccc2nc(N(C)C(=O)C3CCCN(C)C3)oc2c1` (stereo not shown) [Compound 37, [1-Benzyl-2-hydroxy-3-(isobutyl-{2-[methyl-(1-methyl-piperidine-3-carbonyl)-amino]-benzooxazole-6-sulfonyl}-amino)-propyl]-carbamic acid thiazol-5-ylmethyl ester], the pEC50 was 4.49 to 5.00.

`CC(C)CN(CC(O)C(Cc1ccccc1)NC(=O)OCc1cncs1)S(=O)(=O)c1ccc2nc(N3CCCC3)oc2c1` (stereo not shown) [Compound 5, {1-Benzyl-2-hydroxy-3-[isobutyl-(2-pyrrolidin-1-yl-benzo-oxazole-6-sulfonyl)-amino]-propyl}-carbamic acid thiazol-5-ylmethyl ester] had a pEC50 of 5.00 to 5.70.

`CC(C)CN(CC(O)C(Cc1ccccc1)NC(=O)OCc1cncs1)S(=O)(=O)c1ccc2nc(N(C)C(=O)C3CCC(=O)N3)oc2c1` (stereo not shown) [Compound 8, [1-Benzyl-2-hydroxy-3-(isobutyl-{2-[methyl-(5-oxo-pyrrolidine-2-carbonyl)-amino]-benzooxazole-6-sulfonyl}-amino)-propyl]-carbamic acid thiazol-5-ylmethyl ester] gave a pEC50 of 4.49 to 5.00.

`CC(C)CN(CC(O)C(Cc1ccccc1)NC(=O)OCc1cncs1)S(=O)(=O)c1ccc2nc(N3CCNCC3)oc2c1` (stereo not shown) [Compound 30, {1-Benzyl-2-hydroxy-3-[isobutyl-(2-piperazin-1-yl-benzo-oxazole-6-sulfonyl)-amino]-propyl}-carbamic acid thiazol-5-ylmethyl ester]: the pEC50 was 5.00 to 5.70.

As to `CC(C)CN(CC(O)C(Cc1ccccc1)NC(=O)OCc1cncs1)S(=O)(=O)c1ccc2nc(NC(=O)CN3CCN(C)CC3)oc2c1` (stereo not shown) [Compound 7, [1-Benzyl-2-hydroxy-3-(isobutyl-{2-[2-(4-methyl-piperazin-1-yl)-acetylamino]-benzooxazole-6-sulfonyl}-amino)-propyl]-carbamic acid thiazol-5-ylmethyl ester], the pEC50 was 5.00 to 5.70.

In turn, `CC(C)CN(CC(O)C(Cc1ccccc1)NC(=O)OCc1cncs1)S(=O)(=O)c1ccc2nc(N(C)C(=O)c3ccnc(Cl)c3)oc2c1` (stereo not shown) [Compound 39, [1-Benzyl-3-({2-[(2-chloro-pyridine-4-carbonyl)-methyl-amino]-benzooxazole-6-sulfonyl}-isobutyl-amino)-2-hydroxy-propyl]-carbamic acid thiazol-5-ylmethyl ester] gave a pEC50 of 4.49 to 5.00.

Compound `CC(C)CN(CC(O)C(Cc1ccccc1)NC(=O)OCc1cncs1)S(=O)(=O)c1ccc2nc(NC(=O)C3CCN(C)CC3)oc2c1` (stereo not shown) [Compound 26, [1-Benzyl-2-hydroxy-3-(isobutyl-{2-[(1-methyl-piperidine-4-carbonyl)-amino]-benzooxazole-6-sulfonyl}-amino)-propyl]-carbamic acid thiazol-5-ylmethyl ester] had a pEC50 of 4.49 to 5.00.

As to `CC(=O)Nc1nc2ccc(S(=O)(=O)N(CC(C)C)CC(O)C(Cc3ccccc3)NC(=O)OCc3cncs3)cc2o1` (stereo not shown) [Compound 1, {3-[(2-Acetylamino-benzooxazole-6-sulfonyl)-isobutyl-amino]-1-benzyl-2-hydroxy-propyl}-carbamic acid thiazol-5-ylmethyl ester], the pEC50 was 5.00 to 5.70.

As for `Cc1nc(-c2ccc(S(=O)(=O)N(CC(C)C)CC(O)C(Cc3ccccc3)NC(=O)OCc3cncs3)cc2)co1` (stereo not shown) [Compound 44, (1-Benzyl-2-hydroxy-3-{isobutyl-[4-(2-methyl-oxazol-4-yl)-benzenesulfonyl]-amino}-propyl)-carbamic acid thiazol-5-ylmethyl ester], the pEC50 was 4.49 to 5.00.

With `CC(C)CN(CC(O)C(Cc1ccccc1)NC(=O)OCc1cncs1)S(=O)(=O)c1ccc2nc(N3CCCCC3)oc2c1` (stereo not shown) [Compound 31, {1-Benzyl-2-hydroxy-3-[isobutyl-(2-piperidin-1-yl-benzo-oxazole-6-sulfonyl)-amino]-propyl}-carbamic acid thiazol-5-ylmethyl ester], the pEC50 was 5.00 to 5.70.

The experiment is the same for the next values; noted with them: incubation of three days, luciferase activity.
Take `CC(C)CN(CC(O)C(Cc1ccccc1)NC(=O)OCc1cncs1)S(=O)(=O)c1ccc2nc(NC(=O)C3CCC(=O)N3)oc2c1` (stereo not shown) [Compound 24, [1-Benzyl-2-hydroxy-3-(isobutyl-{2-[(5-oxo-pyrrolidine-2-carbonyl)-amino]-benzooxazole-6-sulfonyl}-amino)-propyl]-carbamic acid thiazol-5-yl methyl ester]: the pEC50 is 5.00 to 5.70.

In turn, `CC(C)CN(CC(O)C(Cc1ccccc1)NC(=O)OCc1cncs1)S(=O)(=O)c1ccc2nc(N)oc2c1` (stereo not shown) [Compound 19, {3-[(2-Amino-benzooxazole-6-sulfonyl)-isobutyl-amino]-1-benzyl-2-hydroxy-propyl}-carbamic acid thiazol-5-ylmethyl ester] had a pEC50 of 5.00 to 5.70.
